Measured values from patent US6737383B1, “Herbicidal oxadiazolidines” (priority 1999, dated 2004).

Legend:
wheat = experiment: Test B pre/postemergence wheat; format: in vivo, Triticum aestivum
Summary of the method: (§1)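 Response is a visual 0-to-10 score relative to untreated plants, where 0 means no effect and 10 means complete control, taken twelve to sixteen days after application. Treatments went onto soil at planting and onto foliage of 1- to 4-leaf plants, using a surfactant-containing non-phytotoxic solvent.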

sugar beet = experiment: Test B pre/postemergence sugar beet; format: in vivo, Beta vulgaris
Summary of the method: as §1

soybean = experiment: Test B pre/postemergence soybean; format: in vivo, Glycine max
Summary of the method: as §1

bedstraw = experiment: Test B pre/postemergence bedstraw; format: in vivo, Galium aparine
Summary of the method: as §1

rape = experiment: Test B pre/postemergence rape; format: in vivo, Brassica napus
Summary of the method: as §1

wild oat = experiment: Test B pre/postemergence wild oat; format: in vivo, Avena fatua
Summary of the method: as §1

purple nutsedge = experiment: Test B pre/postemergence purple nutsedge; format: in vivo, Cyperus rotundus
Summary of the method: as §1

giant foxtail = experiment: Test B pre/postemergence giant foxtail; format: in vivo, Setaria faberii
Summary of the method: as §1

velvetleaf = experiment: Test B pre/postemergence velvetleaf; format: in vivo, Abutilon theophrasti
Summary of the method: as §1

pigweed = experiment: Test B pre/postemergence pigweed; format: in vivo, Amaranthus retroflexus
Summary of the method: as §1

blackgrass = experiment: Test B pre/postemergence blackgrass; format: in vivo, Alopecurus myosuroides
Summary of the method: as §1

morningglory = experiment: Test B pre/postemergence morningglory; format: in vivo, Ipomoea hederacea
Summary of the method: as §1

corn = experiment: Test B pre/postemergence corn; format: in vivo, Zea mays
Summary of the method: as §1

surinam grass = experiment: Test B pre/postemergence surinam grass; format: in vivo, Brachiaria decumbens
Summary of the method: as §1

cocklebur = experiment: Test B pre/postemergence cocklebur; format: in vivo, Xanthium strumarium
Summary of the method: as §1

crabgrass = experiment: Test B pre/postemergence crabgrass; format: in vivo, Digitaria sanguinalis
Summary of the method: as §1

[1] = Postemergence, Rate 62 g/ha, scale 0 to 10, 0 is no effect, 10 is complete control
[2] = Postemergence, Rate 125 g/ha, scale of 0 to 10 where 0 is no effect and 10 is complete control
[3] = Preemergence, Rate 62 g/ha, scale of 0 to 10 where 0 is no effect and 10 is complete control
[4] = Preemergence, Rate 125 g/ha, scale of 0 to 10 where 0 is no effect and 10 is complete control
[5] = Preemergence, Rate 250 g/ha, scale 0 (no effect) to 10 (complete control)
[6] = Rate 250 g/ha, Postemergence, scale 0 to 10, 0 is no effect, 10 is complete control
[7] = Rate 500 g/ha, Postemergence, scale 0 to 10, 0 is no effect, 10 is complete control
[8] = Preemergence, Rate 500 g/ha, scale of 0 to 10 where 0 is no effect and 10 is complete control

For `CC(C)N(C(=O)n1oc(=O)n(C[C@H](C)Cl)c1=O)c1ccc(F)cc1F` [Compound 714], the “Plant response rating, Wheat” value (wheat; [1]) was 0, the “Wheat plant response rating” value (wheat; [2]) was 0 and the “Wheat plant response rating” value (wheat; [3]) was 0. For the same compound, the “Plant response rating, Wheat” value (wheat; [4]) was 4, the “Wheat plant response rating” value (wheat; [5]) was 6 and the “Wheat plant response rating” value (wheat; [6]) was 3. For the same compound, the “Wheat plant response rating” value (wheat; [7]) was 6, the “Plant response rating, Sugarbeets” value (sugar beet; [1]) was 0 and the “Sugarbeets plant response rating” value (sugar beet; [2]) was 6. The “Sugarbeets plant response rating” value (sugar beet; [3]) was 2, the “Plant response rating, Sugarbeets” value (sugar beet; [4]) was 4 and the “Sugarbeets plant response rating” value (sugar beet; [5]) was 4. For the same compound, the “Sugarbeets plant response rating” value (sugar beet; [6]) was 7, the “Sugarbeets plant response rating” value (sugar beet; [7]) was 7 and the “Plant response rating, Soybean” value (soybean; [1]) was 2. The “Soybean plant response rating” value (soybean; [2]) was 4, the “Soybean plant response rating” value (soybean; [3]) was 0 and the “Plant response rating, Soybean” value (soybean; [4]) was 0. For the same compound, the “Soybean plant response rating” value (soybean; [5]) was 0, the “Soybean plant response rating” value (soybean; [6]) was 4 and the “Soybean plant response rating” value (soybean; [7]) was 3. The “Bedstraw plant response rating” value (bedstraw; [2]) was 3, the “Bedstraw plant response rating” value (bedstraw; [3]) was 0 and the “Plant response rating, Bedstraw” value (bedstraw; [4]) was 8. For the same compound, the “Bedstraw plant response rating” value (bedstraw; [5]) was 9, the “Plant response rating, Rape” value (rape; [1]) was 5 and the “Rape plant response rating” value (rape; [2]) was 5. The “Rape plant response rating” value (rape; [3]) was 2, the “Plant response rating, Rape” value (rape; [4]) was 3 and the “Rape plant response rating” value (rape; [5]) was 6. The “Rape plant response rating” value (rape; [6]) was 8, the “Rape plant response rating” value (rape; [7]) was 9 and the “Plant response rating, Wild oats” value (wild oat; [1]) was 0. For the same compound, the “Wild oats plant response rating” value (wild oat; [2]) was 0, the “Wild oats plant response rating” value (wild oat; [3]) was 0 and the “Plant response rating, Wild oats” value (wild oat; [4]) was 4. The “Wild oats plant response rating” value (wild oat; [5]) was 6, the “Wild oats plant response rating” value (wild oat; [6]) was 4 and the “Wild oats plant response rating” value (wild oat; [7]) was 9. The “Plant response rating, Nutsedge” value (purple nutsedge; [1]) was 0, the “Nutsedge plant response rating” value (purple nutsedge; [2]) was 0 and the “Nutsedge plant response rating” value (purple nutsedge; [3]) was 0. The “Plant response rating, Nutsedge” value (purple nutsedge; [4]) was 0, the “Nutsedge plant response rating” value (purple nutsedge; [5]) was 0 and the “Nutsedge plant response rating” value (purple nutsedge; [6]) was 5. For the same compound, the “Nutsedge plant response rating” value (purple nutsedge; [7]) was 5, the “Plant response rating, Giant foxtail” value (giant foxtail; [1]) was 6 and the “Giant foxtail plant response rating” value (giant foxtail; [2]) was 6. The “Giant foxtail plant response rating” value (giant foxtail; [3]) was 10, the “Plant response rating, Giant foxtail” value (giant foxtail; [4]) was 10 and the “Giant foxtail plant response rating” value (giant foxtail; [5]) was 10. The “Giant foxtail plant response rating” value (giant foxtail; [6]) was 7, the “Giant foxtail plant response rating” value (giant foxtail; [7]) was 8 and the “Plant response rating, Velvetleaf” value (velvetleaf; [1]) was 2. For the same compound, the “Velvetleaf plant response rating” value (velvetleaf; [2]) was 2, the “Velvetleaf plant response rating” value (velvetleaf; [3]) was 6 and the “Plant response rating, Velvetleaf” value (velvetleaf; [4]) was 5. The “Velvetleaf plant response rating” value (velvetleaf; [5]) was 2, the “Velvetleaf plant response rating” value (velvetleaf; [6]) was 2 and the “Velvetleaf plant response rating” value (velvetleaf; [7]) was 3. The “Plant response rating, Redroot pigweed” value (pigweed; [1]) was 5, the “Redroot pigweed plant response rating” value (pigweed; [2]) was 8 and the “Redroot pigweed plant response rating” value (pigweed; [3]) was 10. The “Plant response rating, Redroot pigweed” value (pigweed; [4]) was 9, the “Redroot pigweed plant response rating” value (pigweed; [5]) was 10 and the “Redroot pigweed plant response rating” value (pigweed; [6]) was 9. For the same compound, the “Redroot pigweed plant response rating” value (pigweed; [7]) was 9, the “Plant response rating, Blackgrass” value (blackgrass; [1]) was 7 and the “Blackgrass plant response rating” value (blackgrass; [2]) was 7. The “Blackgrass plant response rating” value (blackgrass; [3]) was 7, the “Plant response rating, Blackgrass” value (blackgrass; [4]) was 8 and the “Blackgrass plant response rating” value (blackgrass; [5]) was 9. For the same compound, the “Plant response rating, Blackgrass” value (blackgrass; [8]) was 9, the “Blackgrass plant response rating” value (blackgrass; [6]) was 6 and the “Blackgrass plant response rating” value (blackgrass; [7]) was 7. For the same compound, the “Plant response rating, Morningglory” value (morningglory; [1]) was 0, the “Morningglory plant response rating” value (morningglory; [3]) was 0 and the “Plant response rating, Morningglory” value (morningglory; [4]) was 2. For the same compound, the “Morningglory plant response rating” value (morningglory; [5]) was 0, the “Morningglory plant response rating” value (morningglory; [6]) was 2 and the “Morningglory plant response rating” value (morningglory; [7]) was 2. The “Plant response rating, Corn” value (corn; [1]) was 0, the “Corn plant response rating” value (corn; [2]) was 0 and the “Corn plant response rating” value (corn; [3]) was 0. The “Plant response rating, Corn” value (corn; [4]) was 0, the “Corn plant response rating” value (corn; [5]) was 5 and the “Corn plant response rating” value (corn; [6]) was 0. The “Corn plant response rating” value (corn; [7]) was 0, the “Plant response rating, B. signalgrass” value (surinam grass; [1]) was 2 and the “B. signalgrass plant response rating” value (surinam grass; [2]) was 2. For the same compound, the “B. signalgrass plant response rating” value (surinam grass; [3]) was 7, the “Plant response rating, B. signalgrass” value (surinam grass; [4]) was 9 and the “B. signalgrass plant response rating” value (surinam grass; [5]) was 10. The “Plant response rating, B. signalgrass” value (surinam grass; [8]) was 10, the “B. signalgrass plant response rating” value (surinam grass; [6]) was 6 and the “B. signalgrass plant response rating” value (surinam grass; [7]) was 6. The “Plant response rating, Cocklebur” value (cocklebur; [1]) was 0, the “Cocklebur plant response rating” value (cocklebur; [2]) was 2 and the “Cocklebur plant response rating” value (cocklebur; [3]) was 0. The “Plant response rating, Cocklebur” value (cocklebur; [4]) was 0, the “Cocklebur plant response rating” value (cocklebur; [5]) was 0 and the “Plant response rating, Cocklebur” value (cocklebur; [8]) was 0. The “Cocklebur plant response rating” value (cocklebur; [6]) was 2, the “Cocklebur plant response rating” value (cocklebur; [7]) was 3 and the “Plant response rating, Crabgrass” value (crabgrass; [1]) was 4. For the same compound, the “Crabgrass plant response rating” value (crabgrass; [2]) was 9, the “Crabgrass plant response rating” value (crabgrass; [3]) was 10 and the “Plant response rating, Crabgrass” value (crabgrass; [4]) was 10. The “Crabgrass plant response rating” value (crabgrass; [5]) was 10, the “Crabgrass plant response rating” value (crabgrass; [6]) was 9 and the “Crabgrass plant response rating” value (crabgrass; [7]) was 9.
